Patent EP0585206B1, “Tryptamines for treatment of circadian rhythm disorders” (I.F.L.O. S.a.s. di Giorgio e Aldo Laguzzi, priority 1992, dated 1994)

tested on: N-acetyl-5-methoxytryptamine receptors; experiment: biological activity by classical tests (agonist/antagonist character); conditions: not given
Method: (§1) All the substances were evaluted for their relative affinity and were tested for biological activity by using classical tests.

Activity | SMILES
Agonist | COc1ccc2[nH]c(I)c(CCNC(=O)C3CC3)c2c1 [Compound 4i]
Agonist | COc1cc2c(CCNC(C)=O)c(Br)[nH]c2cc1Br [Compound 4l]
Agonist | COc1ccc2[nH]cc(CCNC(C)=O)c2c1 [Melatonin, N-Acetyl-5-methoxytryptamine, reference compound]
Agonist | COc1ccc2[nH]c(Br)c(CCNC(C)=O)c2c1 [Compound 4j, N-acetyl-2-bromo-5-methoxy tryptamine]

More lines, now with the values behind:

SMILES | Activity
COc1ccc2[nH]c(C3CCCCC3)c(CCNC(C)=O)c2c1 [Compound 4c] | Partial antagonist
COc1ccc2[nH]c(C)c(CCNC(C)=O)c2c1 [Compound 4a] | Agonist
COc1ccc2[nH]c(Br)c(CCNC(=O)C3CC3)c2c1 [Compound 4h] | Agonsit
COc1ccc2[nH]c(-c3ccccc3)c(CCNC(C)=O)c2c1 [Compound 4d] | Antagonist
COc1ccc2[nH]c(-c3ccccc3)c(CCNC(=O)C3CC3)c2c1 [Compound 4g] | Partial antagonist
COc1ccc2[nH]c(C)c(CCNC(=O)C3CC3)c2c1 [Compound 4e] | Agonist
COc1ccc2[nH]c(I)c(CCNC(C)=O)c2c1 [Compound 4k] | Agonist

molecular target: N-acetyl-5-methoxytryptamine receptors; experiment: relative affinity for the specific N-acetyl-5-methoxytryptamine receptors; type: binding; conditions: association constant; SE printed in a separate column
Method: as §1

Ka ± SE [L/mol] | SMILES
4.1e+09 | COc1ccc2[nH]c(-c3ccccc3)c(CCNC(=O)C3CC3)c2c1 [Compound 4g]
